Results taken from US7612018B2, “Insecticides” (Syngenta Crop Protection, Inc., priority 2004, dated 2009).
Values belong to the molecule of their own block, whether it stands above or below them.

Tests used:
[1] = test system: Diabrotica balteata; test: Activity against Diabrotica balteata (Example B2); format: in vivo; conditions: 144 h, maize seedlings, spray 400 ppm, 2nd instar larvae, 6 days, read-out: percentage reduction in the population (% activity)
Experimental: Maize seedlings are sprayed with an aqueous emulsion spray mixture comprising 400 ppm of active ingredient and, after the spray coating has dried on, populated with 10 larvae (2nd instar) of Diabrotica balteata and introduced into a plastic container. 6 days later, the percentage reduction in the population (% activity) is determined by comparing the number of dead larvae between the treated and untreated plants.

[2] = test system: Heliothis virescens; test: Activity against Heliothis virescens (foliar application) (Example B3); format: in vivo; conditions: 144 h, young soya plants, spray 400 ppm, 1st instar caterpillars, 6 days, read-out: percentage reduction in the population and in the feeding damage (% activity)
Experimental: (§1) Young soya plants are sprayed with an aqueous emulsion spray mixture comprising 400 ppm of active ingredient and, after the spray coating has dried on, populated with 10 caterpillars (1st instar) of Heliothis virescens and introduced into a plastic container. 6 days later, the percentage reduction in the population and in the feeding damage (% activity) are determined by comparing the number of dead caterpillars and the feeding damage between the treated and untreated plants.

[3] = test system: Plutella xylostella; test: Activity against Plutella xylostella (Example B7); format: in vivo; conditions: 72 h, young cabbage plants, spray 400 ppm, 3rd instar caterpillars, 3 days, read-out: percentage reduction in the population and in the feeding damage (% activity)
Experimental: as §1, with “cabbage” for “soya”, “(3rd” for “(1st”, “Plutella xylostella” for “Heliothis virescens”, “3” for “6”

[4] = test system: Spodoptera littoralis; test: Activity against Spodoptera littoralis (Example B8); format: in vivo; conditions: 72 h, young soya plants, spray 400 ppm, 1st instar caterpillars, 3 days, read-out: percentage reduction in the population and in the feeding damage (% activity)
Experimental: as §1, with “Spodoptera littoralis” for “Heliothis virescens”, “3” for “6”, “plants. In this test, compounds listed in the Tables above show good activity. In particular, the compounds T.64.1.136, T1.1.136, T64.1.1 and T1.1.1 have an activity of over 80%.” for “plants.”

[5] = test system: Spodoptera littoralis; test: Systemic Insecticide Test for Spodoptera littoralis (Example B9); format: in vivo; conditions: for Death rate (%) after 4 days: 1st instar larvae on cut leaves, one replicate
Experimental: Four day old maize seedlings (Zea mais, variety Stoneville) are placed individual in vials containing 24 ml water into which the chemical is diluted at the prescribed concentrations (12.5, 3 and 0.8 ppm). Seedlings are allowed to grow for six days. Subsequently leaves are cut and placed in a Petri dish (3.5 cm diameter), inoculated with twelve to fifteen 1st instar S. littoralis larvae and incubated for four days in a growth chamber (25° C., 50% r.h., 18:6 L:D photo period). Number of alive insects are counted and percentage of dead calculated. Tests were conducted with one replicate.

[6] = 0.8 ppm in water of maize seedlings
[7] = 3 ppm in water of maize seedlings
[8] = 12.5 ppm in water of maize seedlings

melting point: 125 to 126 °C
SMILES: Cc1cc(C(F)(C(F)(F)F)C(F)(F)F)ccc1NC(=O)c1cccc(I)c1C(=O)NC(C)(C)C/S(C)=N/C(=O)OC(C)(C)C (centres unmarked) [Compound T64.1.1]
inhibition at 400 ppm [1]: > 80%
inhibition at 400 ppm [2]: > 80%
inhibition at 400 ppm [3]: > 80%
inhibition at 400 ppm [4]: > 80%

SMILES: Cc1cc(C(F)(C(F)(F)F)C(F)(F)F)ccc1NC(=O)c1cccc(C)c1C(=O)NC(C)(C)CS(C)(=O)=O [Comp. 124, reference compound]
Death rate (%) after 4 days [5, 6]: 0%
Death rate (%) after 4 days [5, 7]: 20%
Death rate (%) after 4 days [5, 8]: 90%

melting point: 113 to 114 °C
SMILES: Cc1cc(C(F)(C(F)(F)F)C(F)(F)F)ccc1NC(=O)c1cccc(Cl)c1C(=O)NC(C)(C)CS(C)(=O)=NC(=O)OC(C)(C)C (centres unmarked) [Compound T55.1.136]
inhibition at 400 ppm [2]: > 80%
inhibition at 400 ppm [3]: > 80%

melting point: 87 to 88 °C
SMILES: Cc1cc(C(F)(C(F)(F)F)C(F)(F)F)ccc1NC(=O)c1cccc(Cl)c1C(=O)NC(C)(C)CS(C)(=N)=O (centres unmarked) [Compound T1.1.136]
inhibition at 400 ppm [2]: > 80%
inhibition at 400 ppm [3]: > 80%
inhibition at 400 ppm [4]: > 80%

SMILES: Cc1cc(C(F)(C(F)(F)F)C(F)(F)F)ccc1NC(=O)c1cccc(Cl)c1C(=O)NC(C)(C)C/S(C)=N/C(=O)OC(C)(C)C (centres unmarked) [Compound T64.1.136]
inhibition at 400 ppm [1]: > 80%
inhibition at 400 ppm [2]: > 80%
inhibition at 400 ppm [3]: > 80%
inhibition at 400 ppm [4]: > 80%

SMILES: Cc1cc(C(F)(C(F)(F)F)C(F)(F)F)ccc1NC(=O)c1cccc(I)c1C(=O)NC(C)(C)CS(C)(=N)=O (centres unmarked) [Compound T1.1.1]
inhibition at 400 ppm [1]: > 80%
inhibition at 400 ppm [2]: > 80%
inhibition at 400 ppm [3]: > 80%
inhibition at 400 ppm [4]: > 80%
Death rate (%) after 4 days [5, 6]: 100%
Death rate (%) after 4 days [5, 7]: 100%
Death rate (%) after 4 days [5, 8]: 100%
insecticidal action on Spodoptera littoralis compared with the compound from the state of the art ([5]; comparison with Comp. 124, Table B9): substantially better insecticidal action

SMILES: Cc1cc(C(F)(C(F)(F)F)C(F)(F)F)ccc1NC(=O)c1cccc(I)c1C(=O)NC(C)(C)CS(C)(=O)=NC(=O)OC(C)(C)C (centres unmarked) [Compound T55.1.1]
inhibition at 400 ppm [2]: > 80%
inhibition at 400 ppm [3]: > 80%
